Here are results for 31 molecules from patent US10183010B2, “2-oxo-1,2-dihydrobenzo[cd]indole compound and use thereof” (Guangzhou Institutes of Biomedicine and Health, Chinese …, priority 2015, dated 2019).

For assay [1], the target named is T1, BRD4(1) protein (Homo sapiens, UniProt O60885).
T1 construct: BRD4(1) protein, 500 nM; inferred from the use of nickel acceptor beads
The assay is described as follows: AlphaScreen assay: disruption of the interaction of BRD4(1) and biotinylated acetylated peptide. It counts as binding. Particulars: BRD4(1) protein with H4KAc4-biotin peptide, 20° C. In outline:
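BRD4(1) at 500 nM was incubated with biotinylated tetra-acetylated H4 peptide (50 nM) in MOPS/CHAPS/NaF/BSA buffer, pH 7.4, with streptavidin donor and nickel acceptor beads (50 μg/mL each). Incubation ran 1 h at 20 °C in the dark before AlphaScreen signal read-out.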
For orientation: In Alpha technology, singlet oxygen from a donor bead excites a nearby acceptor bead.

The target in assay [2] is T1, BRD4(1) protein. The assay can be described thus: TSA assay: thermodynamic stability of BRD4(1). The assay is classed as binding. Conditions: SYPRO Orange, 30° C. to 80° C. In outline: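 Thermal shift of BRD4(1) protein (100 μM stock) with compound (400 μM stock) in MOPS 50 mM/NaCl 150 mM/10% glycerol, pH 7.5, SYPRO Orange 1:1000, pre-incubated on ice 30 min, DMSO <2%. Melting ramp 30–80 °C at 0.5 °C/min with fluorescence read every 0.5 °C; ΔTm reported.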

Bounds are passed on as bounds.

In the case of `CCN1C(=O)c2cccc3c(NS(=O)(=O)c4cccs4)ccc1c23` [Example 3, N-(1-ethyl-2-oxo-1,2-dihydrobenzo[cd]indol-6-yl)thiophene-2-sulfonamide], the midpoint of inhibition against BRD4(1) protein [1], the IC50, lay at 1.08 µM. The “TSA ΔTm” value on BRD4(1) protein [2] is 7.5 °C.
With `CCN1C(=O)c2cccc3c(NS(=O)(=O)c4ccccc4Br)ccc1c23` [Example 30, 2-bromo-N-(1-ethyl-2-oxo-1,2-dihydrobenzo[cd]indol-6-yl)benzenesulfonamide], on BRD4(1) protein [1], it took 0.97 µM to reach half-maximal inhibition (IC50). Besides, at BRD4(1) protein [2], the “TSA ΔTm” value turned out to be 7.2 °C.
On to `CCN1C(=O)c2cccc3c(S(=O)(=O)NC4CCOCC4)ccc1c23` [Example 108, 1-ethyl-2-oxo-N-(tetrahydro-2H-pyran-4-yl)-1,2-dihydrobenzo[cd]indole-6-sulfonamide], for which the IC50 – broadly, the midpoint of a concentration-inhibition curve – against BRD4(1) protein [1] amounted to 1.21 µM. Further, the “TSA ΔTm” value on BRD4(1) protein [2] stood at 7 °C.
`CCN1C(=O)c2cccc3c(S(=O)(=O)NC4CCN(C)CC4)ccc1c23` [Example 106, 1-ethyl-N-(1-methylpiperidin-4-yl)-2-oxo-1,2-dihydrobenzo[cd]indole-6-sulfonamide] returned an IC50 against BRD4(1) protein [1] above 20 µM. In addition, at BRD4(1) protein [2], the “TSA ΔTm” value was 2 °C.
`CCN1C(=O)c2cccc3c(NC(=O)Cc4ccc(OC)c(OC)c4)ccc1c23` [Example 48, 2-(3,4-dimethoxyphenyl)-N-(1-ethyl-2-oxo-1,2-dihydrobenzo[cd]indol-6-yl)acetamide] registered an IC50 against BRD4(1) protein [1] above 20 µM. Further, the “TSA ΔTm” value on BRD4(1) protein [2] was determined as 3.6 °C.
In the same order, the values of `CCN1C(=O)c2cccc3c(S(=O)(=O)NCC4(C)CC(C)=NO4)ccc1c23` (centres unmarked) [Example 66, N-((3,5-dimethyl-4,5-dihydroisoxazol-5-yl)methyl)-1-ethyl-2-oxo-1,2-dihydrobenzo[cd]indole-6-sulfonamide] are 5.9 µM and 4 °C.
In the same order, the values of `CCN1C(=O)c2cccc3c(S(=O)(=O)Nc4ccc(Cl)cc4)ccc1c23` [Example 120, N-(4-chlorophenyl)-1-ethyl-2-oxo-1,2-dihydrobenzo[cd]indole-6-sulfonamide] are 3.38 µM and 3.3 °C.
For `CCN1C(=O)c2cccc3c(S(=O)(=O)NCCN4CCN(C(=O)OC(C)(C)C)CC4)ccc1c23` [Example 109, tert-butyl 4-(2-(1-ethyl-2-oxo-1,2-dihydrobenzo[cd]indole-6-sulfonamido)ethyl)piperazine-1-carboxylate] the same measures were 8.27 µM and 1 °C.
On BRD4(1) protein [1], `CCN1C(=O)c2cccc3c(NS(=O)(=O)Cc4ccc(C(=O)O)cc4)ccc1c23` [Example 37, 4-((N-(1-ethyl-2-oxo-1,2-dihydrobenzo[cd]indol-6-yl)sulfamoyl)methyl)benzoic acid] had an IC50 of 10.7 µM. Moreover, the “TSA ΔTm” value at BRD4(1) protein [2] worked out at 2.1 °C.
In turn, `CCN1C(=O)c2cccc3c(S(=O)(=O)NCCNC(C)=O)ccc1c23` [Example 79, N-(2-(1-ethyl-2-oxo-1,2-dihydrobenzo[cd]indole-6-sulfonamido)ethyl)acetamide] yielded an IC50 on BRD4(1) protein [1] above 20 µM. Moreover, the “TSA ΔTm” value on BRD4(1) protein [2] was found to be 2.4 °C.
At BRD4(1) protein [1], `CCN1C(=O)c2cccc3c(NC(=O)CCC(F)(F)F)ccc1c23` [Example 51, N-(1-ethyl-2-oxo-1,2-dihydrobenzo[cd]indol-6-yl)-4,4,4-trifluorobutanamide] had an IC50 above 20 µM. Moreover, the “TSA ΔTm” value at BRD4(1) protein [2] amounted to 2.4 °C.
As for `CCN1C(=O)c2cccc3c(S(=O)(=O)NCc4ccccc4F)ccc1c23` [Example 69, 1-ethyl-N-(2-fluorobenzyl)-2-oxo-1,2-dihydrobenzo[cd]indole-6-sulfonamide], on BRD4(1) protein [1], the IC50 turned out to be 13.9 µM. Further, on BRD4(1) protein [2], the “TSA ΔTm” value amounted to 3.5 °C.
In the same order, the values of `CCN1C(=O)c2cccc3c(NC(=O)Cc4ccc(C)cc4)ccc1c23` [Example 54, N-(1-ethyl-2-oxo-1,2-dihydrobenzo[cd]indol-6-yl)-2-(p-tolyl)acetamide] are above 20 µM and 0 °C.
In the case of `CCN1C(=O)c2cccc3c(S(=O)(=O)NC4CCN(C(=O)OC(C)(C)C)CC4)ccc1c23` [Example 71, tert-butyl 4-(1-ethyl-2-oxo-1,2-dihydrobenzo[cd]indole-6-sulfonamido)piperidine-1-carboxylate], the half-maximal inhibitory concentration (IC50) at BRD4(1) protein [1] stood at 1.69 µM. The “TSA ΔTm” value at BRD4(1) protein [2] is 5.5 °C.
Molecule `CCN1C(=O)c2cccc3c(NCc4ccc(OC)cc4)ccc1c23` [Example 58, 1-ethyl-6-((4-methoxybenzyl)amino)benzo[cd]indol-2(1H)-one] registered a half-inhibitory concentration (IC50) against BRD4(1) protein [1] of 2.7 µM. Moreover, at BRD4(1) protein [2], the “TSA ΔTm” value turned out to be 2 °C.
Molecule `CCCNS(=O)(=O)c1ccc2c3c(cccc13)C(=O)N2CC` [Example 100, 1-ethyl-2-oxo-N-propyl-1,2-dihydrobenzo[cd]indole-6-sulfonamide] gave an IC50 against BRD4(1) protein [1] of 0.31 µM. In addition, the “TSA ΔTm” value at BRD4(1) protein [2] is 9 °C.
In the same order, the values of `CCN1C(=O)c2cccc3c(NC(=O)Cc4ccc(Cl)cc4)ccc1c23` [Example 47, 2-(4-chlorophenyl)-N-(1-ethyl-2-oxo-1,2-dihydrobenzo[cd]indol-6-yl)acetamide] are above 20 µM and 0 °C.
In the same order, the values of `CCN1C(=O)c2cccc3c(NS(=O)(=O)c4ccccc4C(=O)O)ccc1c23` [Example 7, 2-(N-(1-ethyl-2-oxo-1,2-dihydrobenzo[cd]indol-6-yl)sulfamoyl)benzoic acid] are 0.84 µM and 6.0 °C.
On to `CCN1C(=O)c2cccc3c(S(=O)(=O)NCCN4CCNC4=O)ccc1c23` [Example 81, 1-ethyl-2-oxo-N-(2-(2-oxoimidazolidin-1-yl)ethyl)-1,2-dihydrobenzo[cd]indole-6-sulfonamide], for which the IC50 against BRD4(1) protein [1] is above 20 µM. Moreover, the “TSA ΔTm” value at BRD4(1) protein [2] stood at 2.4 °C.
In the same order, the values of `CCN1C(=O)c2cccc3c(NS(=O)(=O)Cc4ccc(C(F)(F)F)cc4)ccc1c23` [Example 40, N-(1-ethyl-2-oxo-1,2-dihydrobenzo[cd]indol-6-yl)-1-(4-(trifluoromethyl)phenyl)methanesulfonamide] are above 20 µM and 1.8 °C.
In the same order, the values of `CCN1C(=O)c2cccc3c(NS(=O)(=O)c4cccc(C(=O)OC)c4)ccc1c23` [Example 27, methyl 3-(N-(1-ethyl-2-oxo-1,2-dihydrobenzo[cd]indol-6-yl)sulfamoyl)benzoate] are 3.13 µM and 4.2 °C.
`CCN1C(=O)c2cccc3c(S(=O)(=O)NCC4CC(C(C)C)=NO4)ccc1c23` (centres unmarked) [Example 65, 1-ethyl-N-((3-isopropyl-4,5-dihydroisoxazol-5-yl)methyl)-2-oxo-1,2-dihydrobenzo[cd]indole-6-sulfonamide] had an IC50 on BRD4(1) protein [1] of 20.7 µM. In addition, at BRD4(1) protein [2], the “TSA ΔTm” value turned out to be 2.5 °C.
In the same order, the values of `CCN1C(=O)c2cccc3c(S(=O)(=O)Nc4ccc(NC(C)=O)cc4)ccc1c23` [Example 75, N-(4-(1-ethyl-2-oxo-1,2-dihydrobenzo[cd]indole-6-sulfonamido)phenyl)acetamide] are 4.7 µM and 3.5 °C.
`CCN1C(=O)c2cccc3c(NS(=O)(=O)Cc4ccccc4F)ccc1c23` [Example 42, N-(1-ethyl-2-oxo-1,2-dihydrobenzo[cd]indol-6-yl)-1-(2-fluorophenyl)methanesulfonamide]: the IC50 against BRD4(1) protein [1] was found to be 4.15 µM. On BRD4(1) protein [2], the “TSA ΔTm” value stood at 6 °C.
For `CCOC(CCCNS(=O)(=O)c1ccc2c3c(cccc13)C(=O)N2CC)OCC` [Example 103, N-(4,4-diethoxybutyl)-1-ethyl-2-oxo-1,2-dihydrobenzo[cd]indole-6-sulfonamide] the same measures were above 20 µM and 3 °C.
The molecule `CCN1C(=O)c2cccc3c(NS(=O)(=O)c4ccc(C(C)(C)C)cc4)ccc1c23` [Example 15, 4-(tert-butyl)-N-(1-ethyl-2-oxo-1,2-dihydrobenzo[cd]indol-6-yl)benzenesulfonamide] came in with an IC50 on BRD4(1) protein [1] of 6.05 µM. Also, at BRD4(1) protein [2], the “TSA ΔTm” value was found to be 3.0 °C.
Molecule `CCN1C(=O)c2cccc3c(NS(=O)(=O)c4ccc(C(F)(F)F)cc4)ccc1c23` [Example 22, N-(1-ethyl-2-oxo-1,2-dihydrobenzo[cd]indol-6-yl)-4-(trifluoromethyl)benzenesulfonamide] showed an IC50 against BRD4(1) protein [1] of 2.56 µM. The “TSA ΔTm” value at BRD4(1) protein [2] came out at 5.7 °C.
In the same order, the values of `CCN1C(=O)c2cccc3c(S(=O)(=O)NC4CCNC4)ccc1c23` (centres unmarked) [Example 87, 1-ethyl-2-oxo-N-(pyrrolidin-3-yl)-1,2-dihydrobenzo[cd]indole-6-sulfonamide] are above 20 µM and 1.8 °C.
In the case of `CCN1C(=O)c2cccc3c(NS(=O)(=O)Cc4ccc(C)cc4)ccc1c23` [Example 41, N-(1-ethyl-2-oxo-1,2-dihydrobenzo[cd]indol-6-yl)-1-(p-tolyl)methanesulfonamide], the IC50 on BRD4(1) protein [1] stood at 5.64 µM. The “TSA ΔTm” value at BRD4(1) protein [2] is 4.5 °C.
The molecule `CCN1C(=O)c2cccc3c(S(=O)(=O)NCCCCNC(=O)OC(C)(C)C)ccc1c23` [Example 82, tert-butyl(4-(1-ethyl-2-oxo-1,2-dihydrobenzo[cd]indole-6-sulfonamido)butyl)carbamate] gave an IC50 on BRD4(1) protein [1] of 1.16 µM. At BRD4(1) protein [2], the “TSA ΔTm” value is 6.2 °C.
`CCN1C(=O)c2cccc3c(NS(=O)(=O)Cc4ccc(Cl)cc4)ccc1c23` [Example 43, 1-(4-chlorophenyl)-N-(1-ethyl-2-oxo-1,2-dihydrobenzo[cd]indol-6-yl)methanesulfonamide] displayed a half-maximal inhibitory concentration (IC50) against BRD4(1) protein [1] of 4.81 µM. Besides, the “TSA ΔTm” value at BRD4(1) protein [2] turned out to be 3.6 °C.
